Results: patent publication EP3628044B1, “PYRROLO[2,3-C]PYRIDINES AND RELATED ANALOGS AS LSD-1 INHIBITORS” (The Regents of The University of Michigan, priority 2017, dated 2018)

Target: T1, Human recombinant LSD1 protein (Homo sapiens, UniProt O60341)
T1 construct: purchased Active Motif (Carlsbad, CA); host or cells: E. coli
Experiment: LSD1 enzymatic activity assay (AlphaLISA, Biotin-H3K4Me peptide substrate)
Type: biochemical
Conditions: 4 nM LSD1, 80 nM Biotin-H3K4Me peptide substrate, 1% DMSO, compounds tested as the TFA salt
Protocol: Human recombinant LSD1 protein expressed in E. coli cells was purchased from Active Motif (Carlsbad, CA). Biotin-labeled Histone H3K4Me peptide (residues 1-21 with Lys 4 monomethylated) substrate was purchased from Anaspec (Fremont, CA). Enzymatic activity was assessed using the AlphaLISA technology from Perkin Elmer Life Sciences (Waltham, MA). 2.5 µL of compound solution and 5 µL of LSD1 solutions in the assay buffer (50mM Tris, pH 9.0, 50mM NaCl with 0.01% Tween20 and 1mM DTT added right before the assay) were added into a white low volume 384 well microtiter plate. This mixture solution was incubated for 15 minutes with gentle shaking at room temperature. Demethylation reaction was initiated by adding 2.5 µL of Biotin-H3K4Me peptide substrate solution in the assay buffer. Final concentrations of LSD1, Biotin-H3K4Me peptide substrate, and DMSO were 4 nM, 80 nM, and 1%, respectively. […] Plates were read on a BMG CLARIOStar multimode plate reader from BMG Labtech (Ortenberg, Germany) with an excitation wavelength of 680 nm and emission wavelength of 615 nm. IC50 values of inhibitors were obtained by fitting the fluorescence intensity vs inhibitor concentrations in a sigmoidal dose-response curve (variable slope) with a non-linear regression using Prism 7 (La Jolla, CA). […]

| SMILES | IC50 |
| --- | --- |
| CN(C)c1ccc(-c2ncc3c(ccn3CC3CCNCC3)c2-c2ccc(C#N)cc2)cc1 [compound 85, 4-(5-(4-(dimethylamino)phenyl)-1-(piperidin-4-ylmethyl)-1H-pyrrolo[2,3-c]pyridin-4-yl)benzonitrile] | 23.1 nM |
